Test results published in PubChem BioAssay (NCI).
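Cultured in 96-well plates, cells were exposed to test compound for 48 hours across five concentrations. GI50 = concentration required for 50% inhibition of growth. TGI: concentration producing complete growth inhibition.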

What was measured:
Assay in all cases: growth of human tumour cells (NCI), 48 h
ACHN renal = test system: ACHN renal
DU-145 prostate = test system: DU-145 prostate
HT29 colon = test system: HT29 colon
IGROV1 ovarian = test system: IGROV1 ovarian
NCI-H226 lung = test system: NCI-H226 lung
OVCAR-4 ovarian = test system: OVCAR-4 ovarian
SNB-19 CNS = test system: SNB-19 CNS
SNB-75 CNS = test system: SNB-75 CNS
SR leukemia = test system: SR leukemia
TK-10 renal = test system: TK-10 renal

## COC(=O)[C@]12CC[C@@H](C)[C@H](C)[C@@H]1C1=CC[C@@H]3[C@@]4(C)C(C=O)=C[C@@](C)(COC(=O)c5ccco5)C4=CC[C@@]3(C)[C@]1(C)CC2
ACHN renal
  GI50: 0.118 µM
  TGI: 2.56 µM
DU-145 prostate
  GI50: 3.81 µM
  TGI: 15.9 µM
HT29 colon
  GI50: 2.98 µM
  TGI: 9.47 µM
IGROV1 ovarian
  GI50: 4.06 µM
  TGI: 24.3 µM
NCI-H226 lung
  GI50: 2.33 µM
  TGI: 7.79 µM
OVCAR-4 ovarian
  GI50: 3.54 µM
  TGI: 22.4 µM
SNB-19 CNS
  GI50: 5.12 µM
  TGI: > 100 µM
SNB-75 CNS
  GI50: 2.47 µM
  TGI: 25.5 µM
SR leukemia
  GI50: 2.12 µM
  TGI: 6.66 µM
TK-10 renal
  GI50: 2.42 µM
  TGI: 12.5 µM

## Cc1cc(O)cc(-c2nn(C)cc2-c2cc(N3CCOCC3)nc(-c3cccnc3)n2)c1
ACHN renal
  GI50: 3.68 µM
  TGI: 41.2 µM
DU-145 prostate
  GI50: 3.97 µM
  TGI: > 100 µM
HT29 colon
  GI50: 3.39 µM
  TGI: 21.9 µM
IGROV1 ovarian
  GI50: 4.27 µM
  TGI: 72.6 µM
NCI-H226 lung
  GI50: 4.83 µM
  TGI: 20.5 µM
OVCAR-4 ovarian
  GI50: 7.74 µM
  TGI: > 100 µM
SNB-19 CNS
  GI50: 4.84 µM
  TGI: > 100 µM
SNB-75 CNS
  GI50: 1.48 µM
  TGI: 4.49 µM
SR leukemia
  GI50: 1.22 µM
  TGI: > 100 µM
TK-10 renal
  GI50: 8.68 µM
  TGI: 95.3 µM

## COc1ccc(-c2cncn2-c2ccc(-c3nc4cc(OC)c(OC)c(OC)c4s3)cc2)cc1N
ACHN renal
  GI50: 5.59 µM
  TGI: > 100 µM
DU-145 prostate
  GI50: 6.38 µM
  TGI: > 100 µM
HT29 colon
  GI50: 3.87 µM
  TGI: > 100 µM
IGROV1 ovarian
  GI50: 4.9 µM
  TGI: > 100 µM
NCI-H226 lung
  GI50: 6.7 µM
  TGI: > 100 µM
OVCAR-4 ovarian
  GI50: 6.29 µM
  TGI: > 100 µM
SNB-19 CNS
  GI50: > 100 µM
  TGI: > 100 µM
SNB-75 CNS
  GI50: 52.3 µM
  TGI: > 100 µM
SR leukemia
  GI50: 3.43 µM
  TGI: > 100 µM
TK-10 renal
  GI50: 4.16 µM
  TGI: > 100 µM

## COC(=O)C[C@@H]1CC=CC(=O)/C1=C(O)/C=C/c1ccccc1
ACHN renal
  GI50: 0.268 µM
  TGI: 0.743 µM
DU-145 prostate
  GI50: 0.695 µM
  TGI: 1.96 µM
HT29 colon
  GI50: 0.268 µM
  TGI: 0.774 µM
IGROV1 ovarian
  GI50: 0.216 µM
  TGI: 0.52 µM
NCI-H226 lung
  GI50: 2.05 µM
  TGI: 7.55 µM
OVCAR-4 ovarian
  GI50: 1.54 µM
  TGI: 2.96 µM
SNB-19 CNS
  GI50: 1.57 µM
  TGI: 4.84 µM
SNB-75 CNS
  GI50: 1.05 µM
  TGI: 3.21 µM
SR leukemia
  GI50: 0.275 µM
TK-10 renal
  GI50: 0.916 µM
  TGI: 5.69 µM

## Nc1ncc(-c2ccc3ncnc(N4CCc5cc(F)c(Cl)cc54)c3c2)cc1C(F)(F)F
ACHN renal
  GI50: 0.784 µM
  TGI: > 100 µM
DU-145 prostate
  GI50: 1.8 µM
  TGI: > 100 µM
HT29 colon
  GI50: 1.97 µM
  TGI: > 100 µM
OVCAR-4 ovarian
  GI50: 1.74 µM
  TGI: 27.9 µM
SNB-19 CNS
  GI50: 2.62 µM
  TGI: > 100 µM
SNB-75 CNS
  GI50: 0.308 µM
  TGI: 3.59 µM
SR leukemia
  GI50: 1.67 µM
  TGI: > 100 µM

## Fc1cccc(-c2nc(-c3c[nH]c4ncccc34)cs2)c1
ACHN renal
  GI50: 9.68 µM
  TGI: > 100 µM
DU-145 prostate
  GI50: > 100 µM
  TGI: > 100 µM
HT29 colon
  GI50: > 100 µM
  TGI: > 100 µM
IGROV1 ovarian
  GI50: 8.15 µM
  TGI: > 100 µM
NCI-H226 lung
  GI50: > 100 µM
  TGI: > 100 µM
SNB-19 CNS
  GI50: 22.6 µM
  TGI: > 100 µM
SNB-75 CNS
  GI50: 8.34 µM
  TGI: 42.8 µM
SR leukemia
  GI50: > 100 µM
  TGI: > 100 µM
TK-10 renal
  GI50: 25.9 µM
  TGI: > 100 µM

## O=CCC(O)C(O)C(O)CO (stereo not drawn)
ACHN renal
  GI50: > 100 µM
  TGI: > 100 µM
DU-145 prostate
  GI50: > 100 µM
  TGI: > 100 µM
HT29 colon
  GI50: > 100 µM
  TGI: > 100 µM
IGROV1 ovarian
  GI50: > 100 µM
  TGI: > 100 µM
NCI-H226 lung
  GI50: > 100 µM
  TGI: > 100 µM
OVCAR-4 ovarian
  GI50: > 100 µM
  TGI: > 100 µM
SNB-19 CNS
  GI50: > 100 µM
  TGI: > 100 µM
SR leukemia
  GI50: > 100 µM
  TGI: > 100 µM
TK-10 renal
  GI50: > 100 µM
  TGI: > 100 µM

## N#Cc1cc2c(=S)[nH]c(=S)[nH]c2nc1SCc1ccccc1
ACHN renal
  GI50: 27.4 µM
  TGI: > 100 µM
DU-145 prostate
  GI50: 82.9 µM
  TGI: > 100 µM
IGROV1 ovarian
  GI50: 55.8 µM
  TGI: > 100 µM
NCI-H226 lung
  GI50: 24.4 µM
  TGI: 94.3 µM
OVCAR-4 ovarian
  GI50: 39.2 µM
  TGI: > 100 µM
SNB-19 CNS
  GI50: > 100 µM
  TGI: > 100 µM
SR leukemia
  GI50: 41.3 µM
  TGI: > 100 µM
TK-10 renal
  GI50: 12.3 µM
  TGI: 65 µM

## NC(=O)/C=C/c1c[nH]c2nccnc12
ACHN renal
  TGI: > 53.6 µM
DU-145 prostate
  TGI: > 34 µM
HT29 colon
  TGI: > 25.2 µM
IGROV1 ovarian
  TGI: > 28.8 µM
NCI-H226 lung
  TGI: 5.72 µM
OVCAR-4 ovarian
  TGI: 65.4 µM
SNB-19 CNS
  TGI: > 16.7 µM
SNB-75 CNS
  TGI: 4.46 µM
SR leukemia
  TGI: > 100 µM
TK-10 renal
  TGI: 6.26 µM

## NCCNc1nc2ccc(F)cc2c2c(=O)c3cc(F)ccc3sc12
ACHN renal
  GI50: 1.5 µM
  TGI: 2.83 µM
DU-145 prostate
  GI50: 1.9 µM
  TGI: 3.39 µM
HT29 colon
  GI50: 1.61 µM
  TGI: 3.06 µM
IGROV1 ovarian
  GI50: 1.04 µM
  TGI: 2.37 µM
OVCAR-4 ovarian
  GI50: 2.6 µM
  TGI: 8.01 µM
SNB-19 CNS
  GI50: 1.94 µM
  TGI: 4.21 µM
SNB-75 CNS
  GI50: 0.138 µM
  TGI: 5.02 µM
SR leukemia
  GI50: 1.98 µM
  TGI: 4.91 µM
TK-10 renal
  GI50: 2.07 µM
  TGI: 3.57 µM

## COc1cc(-c2cn(-c3ccc(F)cc3)c(=O)[nH]2)cc(OC)c1OC
ACHN renal
  GI50: > 100 µM
  TGI: > 100 µM
DU-145 prostate
  GI50: > 100 µM
  TGI: > 100 µM
HT29 colon
  GI50: > 100 µM
  TGI: > 100 µM
IGROV1 ovarian
  GI50: > 100 µM
  TGI: > 100 µM
NCI-H226 lung
  GI50: > 100 µM
  TGI: > 100 µM
OVCAR-4 ovarian
  GI50: > 100 µM
  TGI: > 100 µM
SNB-19 CNS
  GI50: > 100 µM
  TGI: > 100 µM
SNB-75 CNS
  GI50: 55.6 µM
  TGI: > 100 µM
SR leukemia
  GI50: > 100 µM
  TGI: > 100 µM
TK-10 renal
  GI50: > 100 µM
  TGI: > 100 µM

## COc1ccc(C#CC2=C(Br)C(=O)OC2)cc1
ACHN renal
  GI50: 3.56 µM
  TGI: 13.2 µM
DU-145 prostate
  GI50: 5.44 µM
  TGI: 11.4 µM
HT29 colon
  GI50: 2.42 µM
  TGI: 10.5 µM
IGROV1 ovarian
  GI50: 26.8 µM
  TGI: > 50 µM
NCI-H226 lung
  GI50: 13.3 µM
  TGI: 34.6 µM
OVCAR-4 ovarian
  GI50: 2.46 µM
  TGI: 11.4 µM
SNB-19 CNS
  GI50: 12 µM
  TGI: > 50 µM
SNB-75 CNS
  GI50: 1.29 µM
  TGI: 16.6 µM
SR leukemia
  GI50: 2.63 µM
  TGI: > 50 µM
TK-10 renal
  GI50: 1.94 µM
  TGI: 16.2 µM

## CN1CCN(c2ccc(NC(=O)c3cncnc3Nc3ccc4c(ccn4Cc4cccc(F)c4)c3)cc2)CC1
ACHN renal
  GI50: 1.73 µM
  TGI: 5.89 µM
DU-145 prostate
  GI50: 3.82 µM
  TGI: 7.87 µM
HT29 colon
  GI50: 0.922 µM
  TGI: 2.9 µM
IGROV1 ovarian
  GI50: 2.29 µM
  TGI: 6.92 µM
NCI-H226 lung
  GI50: 4.86 µM
  TGI: 11.6 µM
OVCAR-4 ovarian
  GI50: 3.97 µM
  TGI: 8.66 µM
SNB-19 CNS
  GI50: 4.42 µM
  TGI: 8.96 µM
SNB-75 CNS
  GI50: 4.27 µM
  TGI: 8.51 µM
SR leukemia
  GI50: 0.655 µM
  TGI: 1.96 µM
TK-10 renal
  GI50: 5.87 µM
  TGI: 11.1 µM
